How the values were obtained:
Assay in all cases: Bliss excess, mean over the matrix (fraction); higher = more synergy
EW-3 (Ewing's Sarcoma) = tested on: EW-3 (Ewing's Sarcoma)
Procedure, shortened: (§1)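 Cell lines in DMEM/F12 or RPMI with 10% FBS were plated in 1536-well plates, held 24 hours at 37°C, 5% CO2, then given two-drug dose matrices for 72 hours (DMSO typically 0.2%). Viability was read by CellTiter-Glo 2.0 luminescence and scaled as inhibition from 0 (vehicle wells) to 1 (blank wells). Combination Emax is the second-highest inhibition in the matrix; Bliss excess is observed combination effect minus expected EA + EB − EA·EB, EA and EB being single-agent effects.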

[1] = tested on: KP-2 (Pancreatic Carcinoma)
Procedure, shortened: as §1

IMR-5 (Neuroblastoma) = tested on: IMR-5 (Neuroblastoma)
Procedure, shortened: as §1

[2] = tested on: OCUB-M (Breast Carcinoma)
Procedure, shortened: as §1

A704 (Kidney Carcinoma) = tested on: A704 (Kidney Carcinoma)
Procedure, shortened: as §1

[3] = tested on: DG-75 (Burkitt's Lymphoma)
Procedure, shortened: as §1

[4] = tested on: SCC-9 (Oral Cavity Carcinoma)
Procedure, shortened: as §1

[5] = tested on: VMRC-LCD (Lung Adenocarcinoma)
Procedure, shortened: as §1

EW-13 (Ewing's Sarcoma) = tested on: EW-13 (Ewing's Sarcoma)
Procedure, shortened: as §1

[6] = tested on: NCI-H1573 (Lung Adenocarcinoma)
Procedure, shortened: as §1

[7] = tested on: HC-1 (Other Blood Carcinomas)
Procedure, shortened: as §1

GOTO (Neuroblastoma) = tested on: GOTO (Neuroblastoma)
Procedure, shortened: as §1

[8] = tested on: NCI-H2405 (Lung Adenocarcinoma)
Procedure, shortened: as §1

[9] = tested on: KU-19-19 (Bladder Carcinoma)
Procedure, shortened: as §1

Row | Structure (SMILES) | Bliss excess (EW-3 (Ewing's Sarcoma)) | Bliss excess [1] | Bliss excess (IMR-5 (Neuroblastoma)) | Bliss excess [2] | Bliss excess (A704 (Kidney Carcinoma)) | Bliss excess [3] | Bliss excess [4] | Bliss excess [5] | Bliss excess (EW-13 (Ewing's Sarcoma)) | Bliss excess [6] | Bliss excess [7] | Bliss excess (GOTO (Neuroblastoma)) | Bliss excess [8] | Bliss excess [9]
1 | NC1(C(=O)N[C@@H](CCO)c2ccc(Cl)cc2)CCN(c2ncnc3[nH]ccc23)CC1 [Capivasertib] + Cn1cnc2c(F)c(Nc3ccc(Br)cc3Cl)c(C(=O)NOCCO)cc21 [Selumetinib] (first compound max 10 µM, 7x7, partner max 10 µM) | -0.0091 | 0.0094 | 0.0034 | 0.0081 | -0.0098 | 0.0439 | 0.145 | 0.0047 | 0.0097 | 0.0019 | 0.0123 | 0.0355 | 0.0153 | -0.0364
2 | Cc1c2c(nn1C)CSCc1cc(n(C)n1)CSc1cc(c3ccccc3c1)OCCCc1c(C(=O)O)n(C)c3c-2c(Cl)ccc13 [AZD5991] + CC1(C)CCC(CN2CCN(c3ccc(C(=O)NS(=O)(=O)c4ccc(NCC5CCOCC5)c([N+](=O)[O-])c4)c(Oc4cnc5[nH]ccc5c4)c3)CC2)=C(c2ccc(Cl)cc2)C1 [Venetoclax] (first compound max 1 µM, 7x7, partner max 1 µM) | 0.125 | 0.0157 | 0.0656 | 0.006 | -0.0306 | -0.0246 | -0.0278 | -0.0217 | 0.0893 | -0.036 |  | 0.0588 | -0.0346 | 0.0578
3 | C[C@@H](c1ccc2nccn2c1)n1nnc2ncc(-c3cnn(C)c3)nc21 [Savolitinib] + Cc1c2c(nn1C)CSCc1cc(n(C)n1)CSc1cc(c3ccccc3c1)OCCCc1c(C(=O)O)n(C)c3c-2c(Cl)ccc13 [AZD5991] (first compound max 1 µM, 7x7, partner max 1 µM) | -0.0011 | -0.0468 | 0.0026 | -0.0393 | -0.0508 | -0.0204 | -0.0281 | -0.0198 | -0.0546 | -0.036 | -0.0199 | -0.0227 | -0.0547 | -0.0494
4 | COc1cc2c(cc1OCCCCCOc1cc3c(cc1OC)C(=O)N1C=C(C)C[C@H]1C=N3)N=C[C@@H]1CC(C)=CN1C2=O [SG3199] + O=C(c1cc(Cc2n[nH]c(=O)c3ccccc23)ccc1F)N1CCN(C(=O)C2CC2)CC1 [Olaparib] (first compound max 0.001 µM, 7x7, partner max 10 µM) | -0.0613 | -0.0193 | 0.0167 | -0.0502 | -0.025 | 0.0064 | -0.0352 | -0.042 | -0.0415 | -0.0212 | -0.0164 | 0.0943 | -0.043 | -0.0041
5 | CN(C)CCCOc1ccc(-c2ccc3ncc4c(c3c2)n(C2CCOCC2)c(=O)n4C)cn1 [AZD0156] + O=C(c1cc(Cc2n[nH]c(=O)c3ccccc23)ccc1F)N1CCN(C(=O)C2CC2)CC1 [Olaparib] (first compound max 3 µM, partner max 3 µM) | 0.13 | -0.0072 | 0.0884 | -0.0091 | 0.026 | 0.0614 | 0.0741 | -0.0489 |  | 0.0002 | 0.134 | 0.0036 | -0.0471 | 0.0781
6 | NC1(C(=O)N[C@@H](CCO)c2ccc(Cl)cc2)CCN(c2ncnc3[nH]ccc23)CC1 [Capivasertib] + CCN(CCO)CCCOc1ccc2c(Nc3cc(CC(=O)Nc4cccc(F)c4)[nH]n3)ncnc2c1 [AZD2811] (first compound max 10 µM, 7x7, partner max 1 µM) | 0.0117 | -0.0433 | -0.0144 | -0.0217 | -0.0375 | 0.04 | -0.0281 | 0.0111 | 0.007 | -0.0074 | -0.0564 | 0.0047 | -0.0535 | 0.0011
7 | COc1cc2ncnc(Nc3ccc(F)c(Cl)c3)c2cc1OCCCN1CCOCC1 [Gefitinib] + CC(C)n1c(=O)n(C)c2cnc3cc(F)c(-c4ccc(OCCCN5CCCCC5)nc4)cc3c21 [AZD1390] (first compound max 10 µM, 7x7, partner max 0.3 µM) | -0.0347 | -0.0438 | -0.0516 | -0.0537 | -0.0325 | -0.0333 | -0.0309 | -0.0405 | -0.0568 | -0.104 | -0.127 | -0.07 | -0.0597 | -0.0831
8 | CC1(C)CCC(CN2CCN(c3ccc(C(=O)NS(=O)(=O)c4ccc(NCC5CCOCC5)c([N+](=O)[O-])c4)c(Oc4cnc5[nH]ccc5c4)c3)CC2)=C(c2ccc(Cl)cc2)C1 [Venetoclax] + Cc1cc2ncnn2cc1Nc1ncc2c(n1)n(C1CCOCC1)c(=O)n2C [AZD7648] (first compound max 1 µM, 7x7, partner max 10 µM) | 0.0149 | -0.0577 | -0.0038 | -0.0149 | -0.0215 | -0.0157 | -0.0211 | -0.0675 | -0.0417 | -0.0242 | -0.02 | -0.0442 | -0.0492 | -0.0571
9 | CC1(C)CCC(CN2CCN(c3ccc(C(=O)NS(=O)(=O)c4ccc(NCC5CCOCC5)c([N+](=O)[O-])c4)c(Oc4cnc5[nH]ccc5c4)c3)CC2)=C(c2ccc(Cl)cc2)C1 [Venetoclax] + C[C@@H]1COCCN1C2=NC(=NC(=C2)C3(CC3)[S@](=N)(=O)C)C4=C5C=CNC5=NC=C4 [AZD6738] (first compound max 1 µM, 7x7, partner max 10 µM) | 0.0185 | -0.0225 | 0.0104 | -0.0107 | -0.0758 | -0.0021 | -0.0433 | -0.0393 | 0.0008 | -0.0313 | 0.0289 | -0.039 | -0.06 | -0.0844
10 | Cc1c2c(nn1C)CSCc1cc(n(C)n1)CSc1cc(c3ccccc3c1)OCCCc1c(C(=O)O)n(C)c3c-2c(Cl)ccc13 [AZD5991] + C1CN(CCC1(C(=O)N[C@@H](CCO)C2=CC=C(C=C2)Cl)N)C3=NC=NC4=C3C=CN4 [Capivasertib] (first compound max 1 µM, 7x7, partner max 3 µM) | 0.0032 | -0.01 | 0.0045 | 0.0321 | -0.065 | -0.0281 | -0.0113 | -0.0416 | 0.0256 | 0.0057 | -0.0475 | 0.0118 | -0.0402 | -0.0321
11 | Cc1c2c(nn1C)CSCc1cc(n(C)n1)CSc1cc(c3ccccc3c1)OCCCc1c(C(=O)O)n(C)c3c-2c(Cl)ccc13 [AZD5991] + C[C@@H]1COCCN1C2=NC(=NC(=C2)C3(CC3)[S@](=N)(=O)C)C4=C5C=CNC5=NC=C4 [AZD6738] (first compound max 1 µM, 7x7, partner max 10 µM) | 0.0207 | 0.0446 | 0.0245 | 0.0339 | -0.0522 | -0.0464 | 0.0134 | 0.0179 | -0.0056 | -0.033 | 0.0639 | -0.0213 | 0.0105 | -0.0013
12 | CS(=O)(=O)CCNCc1ccc(-c2ccc3ncnc(Nc4ccc(OCc5cccc(F)c5)c(Cl)c4)c3c2)o1 [Lapatinib] + NC1(c2ccc(-c3nc4ccn5c(=O)[nH]nc5c4cc3-c3ccccc3)cc2)CCC1 [MK-2206] (first compound max 10 µM, 7x7, partner max 10 µM) | 0.0455 |  |  | 0.142 |  |  | 0.0038 | -0.0273 |  | -0.0055 |  |  | -0.111 | -0.0103
13 | C=CCn1c(=O)c2cnc(Nc3ccc(N4CCN(C)CC4)cc3)nc2n1-c1cccc(C(C)(C)O)n1 [AZD1775] + C1CN(CCC1(C(=O)N[C@@H](CCO)C2=CC=C(C=C2)Cl)N)C3=NC=NC4=C3C=CN4 [Capivasertib] (first compound max 3 µM, partner max 3 µM) | -0.0571 | -0.0475 | -0.0214 | -0.0436 | -0.0259 | 0.0215 | 0.0038 | -0.0226 |  | -0.0318 | 0.0514 | -0.0109 | -0.0891 | -0.0174
14 | COc1nnc2ccc(N3CCC(c4ccc(OCCN5CCN(C)C(=O)[C@H]5C)cc4)CC3)nn12 [AZD5153] + CN(CC[C@H](CSC1=CC=CC=C1)NC2=C(C=C(C=C2)S(=O)(=O)NC(=O)C3=CC=C(C=C3)N4CCC(CC4)[C@H](C5=CC=CC=C5C6=CC=C(C=C6)Cl)O)S(=O)(=O)C(F)(F)F)CCO [AZD4320] (first compound max 1 µM, 7x7, partner max 1 µM) |  | 0.0546 | 0.0807 |  | 0.0754 | -0.0557 |  |  | -0.0243 | 0.0178 | -0.0468 | 0.065 | 0.0342 | 0.0829
15 | CC(=O)c1c(C)c2cnc(Nc3ccc(N4CCNCC4)cn3)nc2n(C2CCCC2)c1=O [Palbociclib] + CN(CC[C@H](CSC1=CC=CC=C1)NC2=C(C=C(C=C2)S(=O)(=O)NC(=O)C3=CC=C(C=C3)N4CCC(CC4)[C@H](C5=CC=CC=C5C6=CC=C(C=C6)Cl)O)S(=O)(=O)C(F)(F)F)CCO [AZD4320] (first compound max 10 µM, 7x7, partner max 1 µM) |  | -0.0731 | 0.0866 |  | -0.0376 | -0.0373 |  |  | -0.121 | -0.109 | 0.0001 | 0.0226 | -0.0614 | -0.0482
16 | C[C@@H](c1ccc2nccn2c1)n1nnc2ncc(-c3cnn(C)c3)nc21 [Savolitinib] + CN(CC[C@H](CSC1=CC=CC=C1)NC2=C(C=C(C=C2)S(=O)(=O)NC(=O)C3=CC=C(C=C3)N4CCC(CC4)[C@H](C5=CC=CC=C5C6=CC=C(C=C6)Cl)O)S(=O)(=O)C(F)(F)F)CCO [AZD4320] (first compound max 1 µM, 7x7, partner max 1 µM) |  | -0.0136 | -0.0399 |  | -0.0766 | -0.0338 |  |  | -0.0577 | -0.0473 | -0.0254 | 0.0166 | -0.0553 | -0.0259
17 | Cc1c2c(nn1C)CSCc1cc(n(C)n1)CSc1cc(c3ccccc3c1)OCCCc1c(C(=O)O)n(C)c3c-2c(Cl)ccc13 [AZD5991] + CCN(CCO)CCCOc1ccc2c(Nc3cc(CC(=O)Nc4cccc(F)c4)[nH]n3)ncnc2c1 [AZD2811] (first compound max 1 µM, 7x7, partner max 1 µM) | 0.05 | 0.0395 | -0.0117 | -0.0116 | -0.0462 | 0.0704 |  | -0.0133 | 0.032 | -0.0145 | 0.13 | -0.0245 | -0.0164 | 0.0376
